Results on four compounds are retold here after patent US20220380334A1, “(-) - CIS TETRAHYDROCANNABINOL ((-) - CIS-THC) FOR USE AS A MEDICAMENT” (GW Research Limited, priority 2019, published 2022).

Assay [1] concerns tonic hind limb convulsions. Nature of the assay: Mouse supramaximal electroshock seizure (MES) model of generalized seizures. The format is in vivo. As for the experimental part:
Mice were administered MES (30 mA, rectangular current: 0.6 ms pulse width, 0.2 s duration, 50 Hz) via corneal electrodes connected to a constant current shock generator (Ugo Basile: type 7801) to reliably produce tonic hind limb convulsions. The number of tonic convulsions was recorded.
Sixteen mice were studied per group. The test was performed blind.
The test substance, (−)-cis-THC, was evaluated at 4 doses (10, 50, 100 and 150 mg/kg), administered i.p. 60 minutes before MES, and compared with a vehicle control group (administered under the same experimental conditions).
Valproate (positive control) was administered at 250 mg/kg i.p. 30 minutes before MES, was used as a reference substance and was compared with a vehicle group (administered i.p. 60 minutes before MES).
Data was analysed by comparing treated groups with the appropriate vehicle control using 2-tailed Fisher's Exact Probability tests (p<0.05 considered significant).
For orientation: In the maximal electroshock model the usual endpoint is tonic extension of the hind limbs.

Assay [2] concerns withdrawal threshold on hot plate at 52° C. Nature of the assay: Mouse hotplate test of anti-nociceptive potential. The following applies: for Withdrawal threshold (sec) Mean +/− SEM: hot plate 52° C. The format is in vivo. As for the experimental part:
Mice underwent a minimum habituation period of 7 days prior to study commencement. Naïve mice were acclimatised to the procedure room in their home cages, with food and water available ad libitum.
Animals were treated with either treatment vehicle, (−)-cis-THC at 1, 15, 50, 100, 125 and 150 mg/kg at 10 ml/kg i.p. or Morphine 10 mg/kg or Morphine vehicle (Saline) at 10 ml/kg i.p.
Animals were placed onto a hot plate set at 52° C. and time to withdrawal threshold (first response of lifting, licking front or hind paws or trying to escape) was taken at 1-hour post treatment, or at 0.5 hour after the positive control.
Animals were culled by a schedule 1 method, immediately after the measurement.
Data were analysed by comparing withdrawal thresholds back to Vehicle treated group

For assay [3] the following is noted: depending on the assay; cited from earlier work.

Entries after “also recorded” stand apart in the source; their conditions may differ. Marks after values point to notes of the source that are not given here.

For `CCCC(CCC)C(=O)O` [Valproate, reference compound], in assay [1] (250 mg/kg I.P., pre-treatment time 30 mins), the “% change from vehicle in number of tonic clonic seizures after MES” value (“% change from vehicle in number” for short) was found to be 93.8%.
In the case of `CN1CC[C@]23c4c5ccc(O)c4O[C@H]2[C@@H](O)C=C[C@H]3[C@H]1C5` [Morphine, reference compound], the “Withdrawal threshold (sec) Mean +/− SEM” value in assay [2] (10 mg/kg I.P., 0.5 hour after treatment) was 23.17 +/− 1.54 *** sec; in assay [2] (10 mg/kg I.P., 0.5 hour after treatment, listed as morphine), “significant increase”.
Regarding `CCCCCc1cc(O)c2c(c1)OC(C)(C)[C@@H]1CCC(C)=C[C@@H]21` [(−)-trans-THC, (−)-trans-delta-9-tetrahydrocannabinol], in assay [3], the “potency relative to the (+)-trans-THC isomer” value is 6-100 times.
Take `CCCCCc1cc(O)c2c(c1)OC(C)(C)[C@H]1CCC(C)=C[C@@H]21` (relative stereo) [(−)-cis-THC, (−)-cis-delta-9-tetrahydrocannabinol]: the “% change from vehicle in number” value is recorded as “No effect” in assay [1] (10 mg/kg I.P., pre-treatment time 60 mins); 0.0% in assay [1] (10 mg/kg I.P., pre-treatment time 60 mins, listed as (-)-cis-THC); 25% in assay [1] (50 mg/kg I.P., pre-treatment time 60 mins); 25.0% in assay [1] (50 mg/kg I.P., pre-treatment time 60 mins, listed as (-)-cis-THC); 6.3% in assay [1] (100 mg/kg I.P., pre-treatment time 60 mins); 25% in assay [1] (150 mg/kg I.P., pre-treatment time 60 mins). Also, the “% change from vehicle in number” value in assay [1] (150 mg/kg I.P., pre-treatment time 60 mins, listed as (-)-cis-THC) was found to be 25.0%. In addition, in assay [1] (10, 50, 100 and 150 mg/kg i.p.), the “anti-convulsant effect in the MES model (overall conclusion)” value is recorded as “did not produce a significant anti-convulsant effect”. Besides, the “Withdrawal threshold (sec) Mean +/− SEM” value in assay [2] (1 mg/kg I.P., 1-hour post treatment) amounted to 10.99 ± 0.92 s; in assay [2] (15 mg/kg I.P., 1-hour post treatment), 10.22 ± 0.94 s; in assay [2] (50 mg/kg I.P., 1-hour post treatment), 12.68 ± 1.11 s; in assay [2] (100 mg/kg I.P., 1-hour post treatment) it was 14.23 ± 1.37 s; in assay [2] (125 mg/kg I.P., 1-hour post treatment), 15.28 ± 1.19 s. In assay [2] (1 to 150 mg/kg i.p.), the “anti-nociceptive effect in the hotplate test (overall, in words)” value is “dose-related increase in withdrawal threshold; also recorded: significant anti-nociceptive effect”.
